Where two headings read alike, the source gives them in different places.
Experiments:
Type in all cases: cell-based, human
[1] = tested on: A549; test: Cell-growth inhibition (CellTiter); conditions: A549, 3 days; read-out: Cell Growth Inhibition GI50 ± SE
Description: (§1) Inhibition of cell growth was determined by using standard procedures. Cell lines were obtained from the NCI anticancer drug screen and maintained in DMEM medium supplemented with 10% fetal bovine serum. Growing cells were exposed to serial dilutions of each compound for 3 days. Cell growth was determined with CellTiter Assay Reagent (Promega), and growth parameters, including inhibition of growth, were measured by using the methods specified by the manufacturer.

[2] = tested on: M14; test: Cell-growth inhibition (CellTiter); conditions: M14, 3 days; read-out: Cell Growth Inhibition GI50 ± SE
Description: as §1

[3] = tested on: PC3; test: Cell-growth inhibition (CellTiter); conditions: PC3, 3 days; read-out: Cell Growth Inhibition GI50 ± SE
Description: as §1

[4] = tested on: A498
Description: (§2) (aR)-6, (aS)-6, (aS)-iso -6, and (aR)-iso -6 were submitted to the 60 Cell Screen panel and evaluated at 5 doses (100 μM, 10 μM, 1 μM, 0.1 μM, and 0.01 μM). […] The complete report from this submission is available at the publisher’s Web site as a separate Supporting Information file. For COMPARE analysis, TGI levels of response for (aR)-DM-MTC (6) and (aS)-iso-DM-MTC were compared to those of several established tubulin inhibitors previously tested in the NCI-60 screen.

[5] = tested on: A549/ATCC
Description: as §2

[6] = tested on: EKVX
Description: as §2

[7] = tested on: HCT-116
Description: as §2

[8] = tested on: HCT-15
Description: as §2

[9] = tested on: HL-60(TB)
Description: as §2

[10] = tested on: HOP-62
Description: as §2

[11] = tested on: HS 578T
Description: as §2

[12] = tested on: K-562
Description: as §2

[13] = tested on: MDA-MB-231/ATCC
Description: as §2

[14] = tested on: MDA-MB-435
Description: as §2

[15] = tested on: MOLT-4
Description: as §2

[16] = tested on: NCI-H23
Description: as §2

[17] = tested on: NCI-H460
Description: as §2

[18] = tested on: NCI/ADR-RES
Description: as §2

[19] = tested on: OVCAR-4
Description: as §2

[20] = tested on: OVCAR-8
Description: as §2

[21] = tested on: SF-295
Description: as §2

[22] = tested on: SF-539
Description: as §2

[23] = tested on: SK-MEL-28
Description: as §2

[24] = tested on: SK-MEL-2
Description: as §2

[25] = tested on: SK-OV-3
Description: as §2

[26] = tested on: SNB-19
Description: as §2

[27] = tested on: T-47D
Description: as §2

COc1cc(C)c(-c2ccc(OC)c(=O)cc2C)c(OC)c1OC (single isomer, unassigned) [(aR)-6]
GI50 [1]: 2100 ± 100 nM | GI50 [2]: 1100 ± 200 nM | GI50 [3]: 1500 ± 100 nM | Log10GI50 [4]: -6.10 Molar | Log10LC50 [4]: > -4.00 Molar | Log10TGI [4]: -5.34 Molar | GI50 ([4]; Homo sapiens): 790 nM | Log10GI50 ([4]; listed as (aR)-DM-MTC): -6.1 Molar | Log10GI50 [5]: -5.42 Molar | Log10LC50 [5]: > -4.00 Molar | Log10TGI [5]: > -4.00 Molar | GI50 ([5]; Homo sapiens): 3800 nM | Log10GI50 ([5]; listed as (aR)-DM-MTC): -5.42 Molar | Log10GI50 [6]: -5.18 Molar | Log10LC50 [6]: > -4.00 Molar | Log10TGI [6]: > -4.00 Molar | GI50 ([6]; Homo sapiens): 6610 nM | Log10GI50 ([6]; listed as (aR)-DM-MTC): -5.18 Molar | Log10GI50 [7]: -5.71 Molar | Log10LC50 [7]: > -4.00 Molar | Log10TGI [7]: > -4.00 Molar | GI50 ([7]; Homo sapiens): 1950 nM | Log10GI50 ([7]; listed as (aR)-DM-MTC): -5.71 Molar | Log10GI50 [8]: -6.17 Molar | Log10LC50 [8]: > -4.00 Molar | Log10TGI [8]: > -4.00 Molar | GI50 ([8]; Homo sapiens): 680 nM | Log10GI50 ([8]; listed as (aR)-DM-MTC): -6.17 Molar | Log10GI50 [9]: -6.16 Molar | Log10LC50 [9]: > -4.00 Molar | Log10TGI [9]: -5.10 Molar | GI50 ([9]; Homo sapiens): 690 nM | Log10GI50 ([9]; listed as (aR)-DM-MTC): -6.16 Molar | Log10GI50 [10]: -5.42 Molar | Log10LC50 [10]: > -4.00 Molar | Log10TGI [10]: > -4.00 Molar | GI50 ([10]; Homo sapiens): 3800 nM | Log10GI50 ([10]; listed as (aR)-DM-MTC): -5.42 Molar | Log10GI50 [11]: -5.81 Molar | Log10LC50 [11]: > -4.00 Molar | GI50 ([11]; Homo sapiens): 1550 nM | Log10GI50 ([11]; listed as (aR)-DM-MTC): -5.81 Molar | Log10GI50 [12]: -6.31 Molar | Log10LC50 [12]: > -4.00 Molar | Log10TGI [12]: > -4.00 Molar | GI50 ([12]; Homo sapiens, K562): 490 nM | Log10GI50 ([12]; listed as (aR)-DM-MTC): -6.31 Molar | Log10GI50 [13]: -5.59 Molar | Log10LC50 [13]: > -4.00 Molar | Log10TGI [13]: > -4.00 Molar | GI50 ([13]; Homo sapiens): 2570 nM | Log10GI50 ([13]; listed as (aR)-DM-MTC): -5.59 Molar | Log10GI50 [14]: -6.57 Molar | Log10LC50 [14]: > -4.00 Molar | Log10TGI [14]: -6.13 Molar | GI50 ([14]; Homo sapiens): 270 nM | Log10GI50 ([14]; listed as (aR)-DM-MTC): -6.57 Molar | Log10GI50 [15]: -5.58 Molar | Log10LC50 [15]: > -4.00 Molar | Log10TGI [15]: > -4.00 Molar | GI50 ([15]; Homo sapiens): 2630 nM | Log10GI50 ([15]; listed as (aR)-DM-MTC): -5.58 Molar | Log10GI50 [16]: -5.39 Molar | Log10LC50 [16]: > -4.00 Molar | Log10TGI [16]: > -4.00 Molar | GI50 ([16]; Homo sapiens): 4070 nM | Log10GI50 ([16]; listed as (aR)-DM-MTC): -5.39 Molar | Log10GI50 [17]: -5.55 Molar | Log10LC50 [17]: > -4.00 Molar | Log10TGI [17]: > -4.00 Molar | GI50 ([17]; Homo sapiens): 2820 nM | Log10GI50 ([17]; listed as (aR)-DM-MTC): -5.55 Molar | Log10GI50 [18]: -5.76 Molar | Log10LC50 [18]: > -4.00 Molar | GI50 ([18]; Homo sapiens): 1740 nM | Log10GI50 ([18]; listed as (aR)-DM-MTC): -5.76 Molar | Log10GI50 [19]: -4.35 Molar | Log10LC50 [19]: > -4.00 Molar | Log10TGI [19]: > -4.00 Molar | GI50 ([19]; Homo sapiens): 44700 nM | Log10GI50 ([19]; listed as (aR)-DM-MTC): -4.35 Molar | Log10GI50 [20]: -5.47 Molar | Log10LC50 [20]: > -4.00 Molar | Log10TGI [20]: > -4.00 Molar | GI50 ([20]; Homo sapiens): 3390 nM | Log10GI50 ([20]; listed as (aR)-DM-MTC): -5.47 Molar | Log10GI50 [21]: -5.76 Molar | Log10LC50 [21]: > -4.00 Molar | Log10TGI [21]: > -4.00 Molar | GI50 ([21]; Homo sapiens): 1740 nM | Log10GI50 ([21]; listed as (aR)-DM-MTC): -5.76 Molar | Log10GI50 [22]: -5.65 Molar | Log10LC50 [22]: > -4.00 Molar | Log10TGI [22]: > -4.00 Molar | GI50 ([22]; Homo sapiens): 2240 nM | Log10GI50 ([22]; listed as (aR)-DM-MTC): -5.65 Molar | Log10LC50 [23]: > -4.00 Molar | Log10TGI [23]: > -4.00 Molar | Log10GI50 [24]: -6.05 Molar | Log10LC50 [24]: > -4.00 Molar | Log10TGI [24]: -5.18 Molar | GI50 ([24]; Homo sapiens): 890 nM | Log10GI50 ([24]; listed as (aR)-DM-MTC): -6.05 Molar | Log10GI50 [25]: -5.59 Molar | Log10LC50 [25]: > -4.00 Molar | Log10TGI [25]: > -4.00 Molar | GI50 ([25]; Homo sapiens): 2570 nM | Log10GI50 ([25]; listed as (aR)-DM-MTC): -5.59 Molar | Log10GI50 [26]: -5.53 Molar | Log10LC50 [26]: > -4.00 Molar | Log10TGI [26]: > -4.00 Molar | GI50 ([26]; Homo sapiens): 2950 nM | Log10GI50 ([26]; listed as (aR)-DM-MTC): -5.53 Molar | Log10GI50 [27]: -5.15 Molar | Log10LC50 [27]: > -4.00 Molar | Log10TGI [27]: > -4.00 Molar | GI50 ([27]; Homo sapiens, T47D): 7080 nM | Log10GI50 ([27]; listed as (aR)-DM-MTC): -5.15 Molar

Reference: paper PMC12150326 (The Journal of Organic Chemistry, 2025)
